This passage reports IC50 results from US20230331719A1, “Pyrazolopyridine Compounds and Methods of Inhibiting IRE1 Using Same” (OPTIKIRA, LLC, priority 2020, published 2023).

One assay concerns the target IRE1α kinase (Homo sapiens (Human), UniProt O75460). As to the kind of experiment: Inhibition of kinase activity of IRE1α (ADP-Glo). The note with it: 5 nM IRE1α kinase, 100 µM ATP, 4 hours at room temperature. The assay is classed as biochemical. As for the experimental part: The kinase reactions were performed in 384 well white ProxiPlate-384 Plus plates (PERKIN Elmer 6008280) using 25 mM MOPS assay buffer with 1 mM dithiothreitol, 25 mM MgCl2, 12.5 mM β-glycerophosphate, 5 mM EGTA, and 50 µg/mL BSA. Test compounds were prepared on the day of assay and dispensed using D300 digital dispenser as a 10-point ½ log dilution series in duplicate, normalized to a final DMSO concentration of 3%. Test compounds were pre-incubated for 30 min at room temperature with 10 nM IRE1α kinase (E31-11G from Signal Chem) in 2.5 µL of assay buffer and the reaction started by addition of 2.5 µL of ATP in assay buffer, to give a final ATP concentration of 100 µm and 5 nM IRE1α kinase. After 4 hours incubation at room temperature the reactions were stopped and the kinase activity determined using the ADP-Glo™ reagent from Promega, according to the manufacturer’s instructions. Luminescence was measured on a luminometer (EnVision, PerkinElmer) and IC50 values calculated by fitting a sigmoidal curve to percent inhibition of control versus Log10 of compound concentration.

A further assay deals with XBP1. As to the kind of experiment: Cellular XBP1 splicing assay (NanoLuc luciferase reporter). Particulars: Homo sapiens; ARPE-19 cells stably expressing XBP1-nano-luciferase; thapsigargin 150 nM, 4 hour incubation. The format is cell-based. As for the experimental part:
ARPE-19 cells stably expressing XBP1 (a.a. 1-376) with nano-luciferase gene sequence linked so it is in frame when XBP1 is spliced, were cultured in F12 media, 10 % FBS, 0.044% sodium bicarbonate, 150 µg/ml hygromycin B and seeded for assays at 5,000 cells in 384 well plates in culture media without hygromycin B and incubated at 37° C./5% CO2. After overnight incubation test compounds were added to the cell plate in a 10-point ½ log dilution series in duplicate (final DMSO concentration 0.117 %). After further incubation of 30 minutes thapsigargin was added (final concentration 150 nM) and then another 4 hour incubation. A NanoLuc luciferase assay (Promega) was used according to the manufacturer’s instructions to detect the luciferase and luminescence measured on a luminometer (EnVision, PerkinElmer). IC50 values calculated by fitting a sigmoidal curve to percent inhibition of control of compound concentration.

The target of a further assay is IRE1α RNase (Homo sapiens (Human), UniProt O75460). As to the kind of experiment: Inhibition of RNase activity of IRE1α. The assay is classed as biochemical. Particulars: 0.325 nM enzyme, 100 nM substrate, 20 minutes at room temperature. How it is done:
The RNase reactions were performed in 384 well black ProxiPlate-384 Plus plates (PERKIN Elmer) using 50 mM Tris assay buffer with 0.5 mM MgCl2, 10 mM KCl, 0.03 % Tween, 2 mM DTT and 1% DMSO. Test compounds were prepared on the day of assay and dispensed using D300 digital dispenser as a 10-point ½ log dilution series in duplicate, normalized to a final DMSO concentration of […]. Test compounds were pre-incubated for 30 min at room temperature with IRE1α kinase (E31-11G from Signal Chem) in 2.5 µL of assay buffer. Then 2.5 µl of assay buffer containing substrate (5′ Alexa Fluor 647 - rCrArUrGrUrC rCrGrCrArGrCrGrCrArUrG - Iowa Black RQ quencher 3′) (SEQ ID NO:1) added, giving a final concentration of enzyme of 0.325 nM and of substrate of 100 nM. After 20 minutes incubation at room temperature the reactions were stopped by added 5 µL of 5 M urea, incubated at room temperature for 10 minutes and fluorescence measured on a plate reader (EnVision, PerkinElmer). IC50 values calculated by fitting a sigmoidal curve to percent inhibition of control versus compound concentration.

Sequence of IRE1α kinase (O75460 468-977): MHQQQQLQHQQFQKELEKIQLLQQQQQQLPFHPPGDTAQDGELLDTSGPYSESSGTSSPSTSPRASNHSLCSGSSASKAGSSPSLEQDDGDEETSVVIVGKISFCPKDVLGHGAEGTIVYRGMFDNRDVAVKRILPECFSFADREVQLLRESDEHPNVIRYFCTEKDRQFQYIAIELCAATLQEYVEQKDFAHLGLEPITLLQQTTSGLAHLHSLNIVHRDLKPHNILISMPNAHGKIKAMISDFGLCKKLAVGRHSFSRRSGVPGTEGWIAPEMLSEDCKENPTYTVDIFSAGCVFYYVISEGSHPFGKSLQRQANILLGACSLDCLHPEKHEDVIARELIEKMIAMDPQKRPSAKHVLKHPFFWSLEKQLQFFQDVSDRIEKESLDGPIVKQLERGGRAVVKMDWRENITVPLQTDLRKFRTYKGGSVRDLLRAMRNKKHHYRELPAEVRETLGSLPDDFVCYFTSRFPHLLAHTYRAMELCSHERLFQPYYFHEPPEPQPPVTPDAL
Sequence of IRE1α RNase (O75460 468-977): as above

With `Cc1ccc(F)c(S(=O)(=O)Nc2cc(F)c(-c3nn(C(C)C)c4c3c(N)ncc4[C@H]3CC[C@H](N4CCOCC4)CC3)cc2F)c1` [Compound A12, N-(4-(4-amino-1-isopropyl-7-((1r,4r)-4-morpholinocyclohexyl)-1H-pyrazolo[4,3-c]pyridin-3-yl)-2,5-difluorophenyl)-2-fluoro-5-methylbenzenesulfonamide], the figures for the half-inhibitory concentration (IC50) at IRE1α kinase, in the assay on XBP1 and on IRE1α RNase were 2.1 nM, 7.7 nM and 3.4 nM, respectively.

As to `CCOc1ccc(Cl)c(S(=O)(=O)Nc2cc(F)c(-c3nn(C(C)C)c4c3c(N)ncc4[C@H]3CC[C@H](N4CCOCC4)CC3)cc2F)c1` [Compound A17, N-(4-(4-amino-1-isopropyl-7-((1r,4r)-4-morpholinocyclohexyl)-1H-pyrazolo[4,3-c]pyridin-3-yl)-2,5-difluorophenyl)-2-chloro-5-ethoxybenzenesulfonamide], the figures for the half-maximal inhibitory concentration (IC50) at IRE1α kinase, in the assay with XBP1 and against IRE1α RNase were 2.1 nM, 10.6 nM and 4.8 nM, respectively.

As to `CC(C)n1nc(-c2cc(F)c(NS(=O)(=O)Cc3ccccc3F)cc2F)c2c(N)ncc([C@H]3CC[C@H](N4CCOCC4)CC3)c21` [Compound A11, N-(4-(4-amino-1-isopropyl-7-((1r,4r)-4-morpholinocyclohexyl)-1H-pyrazolo[4,3-c]pyridin-3-yl)-2,5-difluorophenyl)-1-(2-fluorophenyl)methanesulfonamide], the half-maximal inhibitory concentration (IC50) is 2.1 nM against IRE1α kinase, 11.6 nM in the assay on XBP1 and 4.8 nM against IRE1α RNase.

With `CC(C)n1nc(-c2cc(F)c(NS(=O)(=O)c3cc(Cl)ccc3Cl)cc2F)c2c(N)ncc([C@H]3CC[C@H](N4CCOCC4)CC3)c21` [Compound A10, N-(4-(4-amino-1-isopropyl-7-((1r,4r)-4-morpholinocyclohexyl)-1H-pyrazolo[4,3-c]pyridin-3-yl)-2,5-difluorophenyl)-2,5-dichlorobenzenesulfonamide], the 50% inhibitory concentration (IC50) at IRE1α kinase was 1.6 nM; in the assay on XBP1, 4.6 nM; against IRE1α RNase, 3.3 nM.

Turning to `COC(C)(C)CN[C@H]1CC[C@H](c2cnc(N)c3c(-c4cc(F)c(NS(=O)(=O)c5ccccc5F)cc4F)nn(C(C)C)c32)CC1` [Compound A13, N-(4-(4-amino-1-isopropyl-7-((1r,4r)-4-((2-methoxy-2-methylpropyl)amino)cyclohexyl)-1H-pyrazolo[4,3-c]pyridin-3-yl)-2,5-difluorophenyl)-2-fluorobenzenesulfonamide], the IC50 at IRE1α kinase is 3.6 nM; in the assay with XBP1, 17 nM; at IRE1α RNase it was 15.5 nM.

As to `[2H]C([2H])([2H])Oc1ccc(F)c(S(=O)(=O)Nc2cc(F)c(-c3nn(C(C)C)c4c3c(N)ncc4[C@H]3CC[C@H](N4CCOCC4)CC3)cc2F)c1` [Compound A18, N-(4-(4-amino-1-isopropyl-7-((1r,4r)-4-morpholinocyclohexyl)-1H-pyrazolo[4,3-c]pyridin-3-yl)-2,5-difluorophenyl)-2-fluoro-5-(methoxy-d3)benzenesulfonamide], the concentration for half-maximal inhibition (IC50) came to 1.9 nM at IRE1α kinase, 6.8 nM with XBP1 and 6 nM at IRE1α RNase.
